Counter-ions that a name gives are not always drawn. Calls of active or inactive are those of the source.
Assays:
[1] = molecular target: Voltage-gated inwardly rectifying potassium channel KCNH2 (Homo sapiens, UniProt Q12809); details: Potency;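 note: confirmatory quantitative high-throughput screen measuring inhibition of hERG channel activity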
Trypsin = Trypsin (Sus scrofa, UniProt P00761); assay: trypsin protease activity blockade – biochemical, quenched peptide fluorescence, cherry-pick, selectivity assay for Rce1 protease inhibitor project, dose response (AID 488789)
Chain of Trypsin (P00761 whole entry): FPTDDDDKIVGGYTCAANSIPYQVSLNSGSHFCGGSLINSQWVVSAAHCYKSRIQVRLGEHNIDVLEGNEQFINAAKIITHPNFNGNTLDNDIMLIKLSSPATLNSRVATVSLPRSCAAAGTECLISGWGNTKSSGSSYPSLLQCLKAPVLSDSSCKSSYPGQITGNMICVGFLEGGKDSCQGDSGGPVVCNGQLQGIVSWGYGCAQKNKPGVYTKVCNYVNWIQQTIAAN

CAAX prenyl protease 2 [2] = molecular target: T1, CAAX prenyl protease 2 (Saccharomyces cerevisiae S288c, UniProt Q03530); assay type: biochemical
T1 sequence (Q03530 whole entry): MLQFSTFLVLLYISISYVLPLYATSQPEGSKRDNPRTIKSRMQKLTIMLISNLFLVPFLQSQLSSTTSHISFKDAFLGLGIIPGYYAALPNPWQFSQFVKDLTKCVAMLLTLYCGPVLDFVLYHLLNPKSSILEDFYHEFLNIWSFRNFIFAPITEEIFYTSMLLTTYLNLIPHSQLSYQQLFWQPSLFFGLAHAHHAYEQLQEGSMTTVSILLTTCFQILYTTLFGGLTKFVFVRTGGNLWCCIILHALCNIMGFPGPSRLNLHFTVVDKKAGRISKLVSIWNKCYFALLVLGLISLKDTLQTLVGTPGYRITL

CAAX prenyl protease 2 [3] = molecular target: CAAX prenyl protease 2 (Homo sapiens, UniProt Q9Y256); assay: inhibition of Ras-converting CAAX protease Rce1 – biochemical, yeast membranes, quenched-peptide fluorescence, cherry-pick, dose response (AID 588849)
Chain of CAAX prenyl protease 2 (Homo sapiens, UniProt Q9Y256) (Q9Y256 whole entry): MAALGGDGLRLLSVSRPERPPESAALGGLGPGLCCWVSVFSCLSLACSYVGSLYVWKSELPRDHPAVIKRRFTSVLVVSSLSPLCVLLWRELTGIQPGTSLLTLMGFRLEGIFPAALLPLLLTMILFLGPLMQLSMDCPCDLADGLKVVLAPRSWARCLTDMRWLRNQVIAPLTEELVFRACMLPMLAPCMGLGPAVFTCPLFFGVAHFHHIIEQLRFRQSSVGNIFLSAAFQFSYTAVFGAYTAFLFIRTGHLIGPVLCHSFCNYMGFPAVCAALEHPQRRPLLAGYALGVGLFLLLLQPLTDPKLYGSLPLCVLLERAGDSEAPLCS

Beta-galactosidase = Beta-galactosidase (Escherichia coli, UniProt Q8VNN2); assay: PubChem AID 485352; assay type: functional
Chain of Beta-galactosidase (Q8VNN2 whole entry): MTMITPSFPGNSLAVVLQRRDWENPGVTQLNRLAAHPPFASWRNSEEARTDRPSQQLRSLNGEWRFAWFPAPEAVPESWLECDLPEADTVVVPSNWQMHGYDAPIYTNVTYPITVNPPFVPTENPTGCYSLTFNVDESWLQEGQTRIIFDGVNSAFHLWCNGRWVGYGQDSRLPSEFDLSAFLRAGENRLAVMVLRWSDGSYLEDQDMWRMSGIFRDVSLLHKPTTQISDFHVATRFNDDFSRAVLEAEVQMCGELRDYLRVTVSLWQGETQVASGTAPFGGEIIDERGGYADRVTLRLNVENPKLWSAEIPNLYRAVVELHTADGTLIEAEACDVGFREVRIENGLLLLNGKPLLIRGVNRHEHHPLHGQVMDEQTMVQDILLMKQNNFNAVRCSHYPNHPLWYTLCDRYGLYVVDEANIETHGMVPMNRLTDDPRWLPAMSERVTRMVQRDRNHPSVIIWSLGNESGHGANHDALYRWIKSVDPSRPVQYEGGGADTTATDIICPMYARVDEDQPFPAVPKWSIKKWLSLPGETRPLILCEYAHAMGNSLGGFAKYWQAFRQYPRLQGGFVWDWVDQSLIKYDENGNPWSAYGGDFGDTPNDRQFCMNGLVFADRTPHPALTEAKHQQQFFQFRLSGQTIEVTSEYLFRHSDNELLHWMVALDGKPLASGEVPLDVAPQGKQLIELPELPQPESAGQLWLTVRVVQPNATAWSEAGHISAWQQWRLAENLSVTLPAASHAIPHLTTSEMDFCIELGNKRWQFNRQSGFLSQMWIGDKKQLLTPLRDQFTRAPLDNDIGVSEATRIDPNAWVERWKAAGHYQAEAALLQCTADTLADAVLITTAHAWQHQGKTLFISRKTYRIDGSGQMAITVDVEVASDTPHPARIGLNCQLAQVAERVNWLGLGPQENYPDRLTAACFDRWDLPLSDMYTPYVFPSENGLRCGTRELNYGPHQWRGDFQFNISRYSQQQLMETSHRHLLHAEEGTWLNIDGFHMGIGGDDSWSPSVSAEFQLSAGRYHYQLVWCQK

[4] = molecular target: T2, Type-1 angiotensin II receptor (Homo sapiens, UniProt P30556); assay: antagonism of angiotensin II type 1 receptor – cell-based, uHTS hits, selectivity assay for APJ receptor antagonist project, dose response (AID 463214); assay type: functional;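 note: antagonist potency against angiotensin II stimulated AT1 response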
T2 sequence (P30556 whole entry): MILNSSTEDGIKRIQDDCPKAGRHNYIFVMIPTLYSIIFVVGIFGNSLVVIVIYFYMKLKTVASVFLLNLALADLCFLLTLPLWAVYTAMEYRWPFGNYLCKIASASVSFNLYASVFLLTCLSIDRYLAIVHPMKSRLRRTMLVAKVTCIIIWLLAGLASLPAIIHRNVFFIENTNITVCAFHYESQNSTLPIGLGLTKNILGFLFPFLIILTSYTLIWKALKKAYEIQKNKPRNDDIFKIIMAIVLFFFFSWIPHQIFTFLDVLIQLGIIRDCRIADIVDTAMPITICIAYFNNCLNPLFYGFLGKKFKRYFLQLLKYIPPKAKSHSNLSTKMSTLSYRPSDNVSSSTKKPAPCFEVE

Protein skinhead-1 = molecular target: T3, Protein skinhead-1 (Caenorhabditis elegans, UniProt P34707); assay type: functional
T3 sequence (P34707 whole entry): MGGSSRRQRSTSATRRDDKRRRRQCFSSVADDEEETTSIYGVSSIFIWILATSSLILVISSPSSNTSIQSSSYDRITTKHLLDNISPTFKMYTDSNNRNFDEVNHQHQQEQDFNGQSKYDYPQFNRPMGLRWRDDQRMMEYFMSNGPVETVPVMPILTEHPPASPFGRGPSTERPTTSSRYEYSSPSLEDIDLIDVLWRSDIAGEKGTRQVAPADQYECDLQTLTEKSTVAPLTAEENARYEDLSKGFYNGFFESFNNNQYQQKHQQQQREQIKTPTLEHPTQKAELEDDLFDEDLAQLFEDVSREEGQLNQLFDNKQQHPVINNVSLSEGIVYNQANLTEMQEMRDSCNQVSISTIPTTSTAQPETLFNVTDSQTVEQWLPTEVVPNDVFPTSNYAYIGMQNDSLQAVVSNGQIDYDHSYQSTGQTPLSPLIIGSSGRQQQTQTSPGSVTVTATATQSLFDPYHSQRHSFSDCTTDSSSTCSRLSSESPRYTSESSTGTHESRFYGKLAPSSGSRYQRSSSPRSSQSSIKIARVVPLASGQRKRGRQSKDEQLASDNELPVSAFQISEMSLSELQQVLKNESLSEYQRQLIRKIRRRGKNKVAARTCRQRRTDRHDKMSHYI

[5] = restored growth of temperature-sensitive Burl-1 yeast – whole organism, S. cerevisiae, Burl-1 ts mutant, luminescence, counter-screen for SUMOylation pathway inhibitor project, dose response (AID 463199); assay type: functional
Vero [6] = assay: cells; assay type: functional, cell-based; details: Chlorocebus sabaeus
[7] = Trypanosoma cruzi growth suppression in host cells – NIH3T3 host cells, beta-gal luminescence, confirmation (AID 2044); assay type: functional, cell-based;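 note: intracellular parasites grown in NIH/3T3 mouse fibroblasts as host cells; luminescent beta-galactosidase reporter signal from transgenic T. cruzi replicating inside host cells; inhibitors lower the luminescence signal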
[8] = NIH3T3 cell viability loss – ATP luminescence, mouse fibroblasts, counter-screen, dose response (AID 2010); assay type: functional, cell-based;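 note: cells exposed to compound for about 90 hours before reading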
[9] = molecular target: Glucose-6-phosphate 1-dehydrogenase (Homo sapiens, UniProt P11413); assay: inhibition of Homo sapiens G6PD, dose series – biochemical, fluorescence, selectivity assay for P. falciparum G6PD inhibitor project, dose response (AID 504792); assay type: functional
Chain of Glucose-6-phosphate 1-dehydrogenase (P11413 whole entry): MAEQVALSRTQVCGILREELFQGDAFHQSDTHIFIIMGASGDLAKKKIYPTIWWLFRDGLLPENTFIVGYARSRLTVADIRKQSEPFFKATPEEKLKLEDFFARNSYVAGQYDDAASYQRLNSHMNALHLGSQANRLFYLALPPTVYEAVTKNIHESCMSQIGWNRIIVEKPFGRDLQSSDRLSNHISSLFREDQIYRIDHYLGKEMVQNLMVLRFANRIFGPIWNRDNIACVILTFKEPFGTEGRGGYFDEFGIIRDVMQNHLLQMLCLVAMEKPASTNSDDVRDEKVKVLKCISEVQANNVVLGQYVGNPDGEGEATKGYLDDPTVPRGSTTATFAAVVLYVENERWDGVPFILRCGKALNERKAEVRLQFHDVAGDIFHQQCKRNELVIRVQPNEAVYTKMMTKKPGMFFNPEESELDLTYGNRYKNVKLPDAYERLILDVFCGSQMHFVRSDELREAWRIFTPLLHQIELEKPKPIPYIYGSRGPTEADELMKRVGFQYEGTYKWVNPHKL

SUMO-activating enzyme = SUMO-activating enzyme (Homo sapiens, UniProt Q9UBT2); assay: blockers of UBC9-mediated SUMO conjugation – biochemical, AlphaScreen, SUMOylation inhibitor project, confirmation (AID 2018); assay type: functional
Chain of SUMO-activating enzyme (Q9UBE0 whole entry): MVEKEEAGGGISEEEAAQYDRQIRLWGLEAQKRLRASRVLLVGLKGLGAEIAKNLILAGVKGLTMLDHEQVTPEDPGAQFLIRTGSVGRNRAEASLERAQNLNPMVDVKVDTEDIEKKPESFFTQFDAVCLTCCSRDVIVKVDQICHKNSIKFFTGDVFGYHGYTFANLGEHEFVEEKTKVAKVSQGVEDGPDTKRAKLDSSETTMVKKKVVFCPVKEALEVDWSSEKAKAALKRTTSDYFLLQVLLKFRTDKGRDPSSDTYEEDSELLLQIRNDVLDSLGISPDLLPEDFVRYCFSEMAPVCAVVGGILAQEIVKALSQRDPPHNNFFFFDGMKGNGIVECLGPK
Chain of SUMO-activating enzyme (Q9UBT2 whole entry): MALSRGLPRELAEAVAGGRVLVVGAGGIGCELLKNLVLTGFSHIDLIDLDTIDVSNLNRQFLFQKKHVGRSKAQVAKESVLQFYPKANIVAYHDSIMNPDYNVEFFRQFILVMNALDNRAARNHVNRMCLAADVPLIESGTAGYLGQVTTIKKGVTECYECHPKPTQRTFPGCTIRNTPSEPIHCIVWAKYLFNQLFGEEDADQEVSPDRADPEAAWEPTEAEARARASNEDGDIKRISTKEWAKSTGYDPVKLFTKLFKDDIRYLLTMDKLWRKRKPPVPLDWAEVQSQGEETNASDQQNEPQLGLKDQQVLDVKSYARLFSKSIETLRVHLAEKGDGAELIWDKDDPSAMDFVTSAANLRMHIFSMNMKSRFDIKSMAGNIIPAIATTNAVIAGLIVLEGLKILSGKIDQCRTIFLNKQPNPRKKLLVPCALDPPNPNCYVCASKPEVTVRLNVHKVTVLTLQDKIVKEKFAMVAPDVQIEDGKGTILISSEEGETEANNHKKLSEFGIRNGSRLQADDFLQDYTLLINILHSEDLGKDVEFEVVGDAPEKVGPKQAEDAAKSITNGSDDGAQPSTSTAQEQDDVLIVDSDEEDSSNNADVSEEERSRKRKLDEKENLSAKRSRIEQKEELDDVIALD

CHO-K1 = assay: (§1) Counterscreen for antagonists of the orexin 1 receptor (OX1R; HCRTR1): Homogeneous time resolved fluorescence (HTRF)-based cell-based dose response assay to identify antagonists of the parental CHO-K1 cell line. [Related pubchem assays (depositor defined):AID434989, AID435008, AID463079, AID485270, AID492963, AID492964, AID492965, AID493232, AID504699, AID504701]; assay type: functional; details: Cricetulus griseus
[10] = as §1, with “Fluorescence-based” for “Homogeneous time resolved fluorescence (HTRF)-based”, “cell-based high throughput” for “cell-based”, “CHO” for “CHO-K1”; assay type: functional
[11] = molecular target: T4, Orexin/Hypocretin receptor type 1 (Homo sapiens, UniProt O43613); assay: Homogeneous Time Resolved Fluorescence (HTRF)-based cell-based high throughput dose response assay for antagonists of the orexin 1 receptor (OX1R; HCRTR1). [Related pubchem assays (depositor defined):AID434989, AID435008, AID463079, AID485270, AID492963, AID492964, AID492965, AID493232, AID504717, AID504718]; assay type: functional
T4 sequence (O43613 whole entry): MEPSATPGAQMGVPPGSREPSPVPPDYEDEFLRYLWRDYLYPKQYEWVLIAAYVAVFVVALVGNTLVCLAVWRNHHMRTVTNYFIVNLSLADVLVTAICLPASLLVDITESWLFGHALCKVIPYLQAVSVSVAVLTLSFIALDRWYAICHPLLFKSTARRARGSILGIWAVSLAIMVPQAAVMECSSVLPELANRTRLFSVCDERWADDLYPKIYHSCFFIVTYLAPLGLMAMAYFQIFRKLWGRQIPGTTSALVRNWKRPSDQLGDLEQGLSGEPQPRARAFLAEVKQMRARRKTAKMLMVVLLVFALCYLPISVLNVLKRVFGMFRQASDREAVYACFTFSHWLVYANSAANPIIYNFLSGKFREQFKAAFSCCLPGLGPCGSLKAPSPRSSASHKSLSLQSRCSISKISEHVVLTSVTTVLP

[12] = molecular target: T4, Orexin/Hypocretin receptor type 1; assay: Fluorescence-based cell-based high throughput dose response assay for antagonists of the orexin 1 receptor (OX1R; HCRTR1). [Related pubchem assays (depositor defined):AID434989, AID435008, AID463079, AID485270, AID492963, AID492964, AID492965, AID493232, AID504717, AID504718]; assay type: functional
Escherichia coli [13] = assay: microbe, parasite or virus in culture
[14] = molecular target: T5, RNA-binding protein pos-1 (Caenorhabditis elegans, UniProt G5EF15); assay: disruptors of C. elegans POS-1 RNA interaction – biochemical, fluorescence polarization, dose response (AID 1964);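 note: purified POS-1 fused to maltose binding protein made in E. coli; potency of compounds blocking POS-1 binding to fluorescent RNA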
T5 sequence (G5EF15 whole entry): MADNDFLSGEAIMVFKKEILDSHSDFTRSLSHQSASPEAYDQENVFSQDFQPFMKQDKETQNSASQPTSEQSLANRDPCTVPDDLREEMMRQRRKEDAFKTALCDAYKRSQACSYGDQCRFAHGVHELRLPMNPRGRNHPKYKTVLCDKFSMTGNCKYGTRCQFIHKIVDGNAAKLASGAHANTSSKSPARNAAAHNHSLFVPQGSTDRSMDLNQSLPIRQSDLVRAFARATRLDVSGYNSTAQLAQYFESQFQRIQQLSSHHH

[15] = molecular target: T6, Zinc finger protein mex-5 (Caenorhabditis elegans, UniProt Q9XUB2); assay: potency of MEX-5 RNA-binding blockers – biochemical, C. elegans, fluorescence polarization, dose response (AID 1960)
T6 sequence (Q9XUB2 whole entry): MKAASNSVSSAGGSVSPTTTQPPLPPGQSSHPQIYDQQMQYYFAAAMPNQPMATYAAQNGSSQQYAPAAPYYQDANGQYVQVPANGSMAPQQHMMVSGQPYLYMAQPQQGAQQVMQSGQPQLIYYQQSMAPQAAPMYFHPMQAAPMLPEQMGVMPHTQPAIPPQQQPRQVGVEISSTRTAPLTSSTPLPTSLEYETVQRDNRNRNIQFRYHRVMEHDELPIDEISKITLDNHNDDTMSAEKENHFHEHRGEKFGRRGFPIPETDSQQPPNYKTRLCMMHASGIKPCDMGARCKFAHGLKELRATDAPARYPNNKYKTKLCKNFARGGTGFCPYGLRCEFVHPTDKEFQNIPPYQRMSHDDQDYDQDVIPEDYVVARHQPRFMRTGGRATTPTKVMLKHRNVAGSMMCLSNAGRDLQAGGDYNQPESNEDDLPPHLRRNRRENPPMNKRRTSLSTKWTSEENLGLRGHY

[16] = molecular target: Dual specificity tyrosine-phosphorylation-regulated kinase 1A (Rattus norvegicus, UniProt Q63470); assay type: biochemical, Homo sapiens
[17] = NIH-3T3 fibroblast cytotoxicity, dose response, cytotoxicity control, cell-based, fluorescence, Alamar Blue, secondary assay (AID 2327); assay type: functional;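 note: NIH-3T3 mouse fibroblasts cultured with fluconazole at 8 µg/mL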
BJ [18] = assay: BJ-TERT fibroblast viability loss – cell-based, RAS-independent, luminescence, dose response (AID 1933); assay type: functional; details: Homo sapiens
BJ [19] = assay: cells; assay type: functional, cell-based; details: Homo sapiens
[20] = fluconazole-exposed Candida albicans growth modulators – fluorescence, retest, confirmation (AID 2467); assay type: functional, cell-based
BJ [21] = assay: BJ-TERT-LT-ST fibroblast viability loss – cell-based, RAS-independent, luminescence, dose response (AID 1935); assay type: functional; details: Homo sapiens;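 note: BJ fibroblasts immortalized with TERT plus LT and ST oncogenes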
[22] = DRD fibroblast viability loss – cell-based, non-viral oncogenic, luminescence, dose response (AID 1934); assay type: functional; details: Homo sapiens
Nonstructural protein 1 = Nonstructural protein 1 (Influenza A virus, UniProt Q194T2); assay type: functional, Influenza A virus (A/California/07/2009(H1N1))
Chain of Nonstructural protein 1 (Q194T2 whole entry): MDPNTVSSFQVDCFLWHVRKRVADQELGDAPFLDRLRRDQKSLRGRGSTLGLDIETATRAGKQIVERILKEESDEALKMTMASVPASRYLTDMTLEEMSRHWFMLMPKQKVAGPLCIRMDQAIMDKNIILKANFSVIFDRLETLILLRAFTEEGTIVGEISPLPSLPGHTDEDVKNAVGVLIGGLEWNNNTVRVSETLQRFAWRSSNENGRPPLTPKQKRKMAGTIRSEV

INS1 = assay: INS-1E survival protection against cytokine death – cell-based, luminescence, retest, dose response (AID 449756); assay type: functional; details: Rattus norvegicus;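 note: cell death triggered by IL-1 beta plus TNF-alpha plus IFN-gamma mixture; protective hits raise ATP signal compared with cytokine alone wells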
Vero [23] = assay: cells; assay type: functional; details: Chlorocebus sabaeus
[24] = A cytotoxicity screen of small molecule inhibitors of the PhoP region in Salmonella typhi identified in the primary screen. [Related pubchem assays: 1850, 1864, 1985 ]; assay type: functional
Escherichia coli [25] = assay: microbe, parasite or virus in culture; remark: listed apart in the source

Chain of Voltage-gated inwardly rectifying potassium channel KCNH2 (Q12809 whole entry): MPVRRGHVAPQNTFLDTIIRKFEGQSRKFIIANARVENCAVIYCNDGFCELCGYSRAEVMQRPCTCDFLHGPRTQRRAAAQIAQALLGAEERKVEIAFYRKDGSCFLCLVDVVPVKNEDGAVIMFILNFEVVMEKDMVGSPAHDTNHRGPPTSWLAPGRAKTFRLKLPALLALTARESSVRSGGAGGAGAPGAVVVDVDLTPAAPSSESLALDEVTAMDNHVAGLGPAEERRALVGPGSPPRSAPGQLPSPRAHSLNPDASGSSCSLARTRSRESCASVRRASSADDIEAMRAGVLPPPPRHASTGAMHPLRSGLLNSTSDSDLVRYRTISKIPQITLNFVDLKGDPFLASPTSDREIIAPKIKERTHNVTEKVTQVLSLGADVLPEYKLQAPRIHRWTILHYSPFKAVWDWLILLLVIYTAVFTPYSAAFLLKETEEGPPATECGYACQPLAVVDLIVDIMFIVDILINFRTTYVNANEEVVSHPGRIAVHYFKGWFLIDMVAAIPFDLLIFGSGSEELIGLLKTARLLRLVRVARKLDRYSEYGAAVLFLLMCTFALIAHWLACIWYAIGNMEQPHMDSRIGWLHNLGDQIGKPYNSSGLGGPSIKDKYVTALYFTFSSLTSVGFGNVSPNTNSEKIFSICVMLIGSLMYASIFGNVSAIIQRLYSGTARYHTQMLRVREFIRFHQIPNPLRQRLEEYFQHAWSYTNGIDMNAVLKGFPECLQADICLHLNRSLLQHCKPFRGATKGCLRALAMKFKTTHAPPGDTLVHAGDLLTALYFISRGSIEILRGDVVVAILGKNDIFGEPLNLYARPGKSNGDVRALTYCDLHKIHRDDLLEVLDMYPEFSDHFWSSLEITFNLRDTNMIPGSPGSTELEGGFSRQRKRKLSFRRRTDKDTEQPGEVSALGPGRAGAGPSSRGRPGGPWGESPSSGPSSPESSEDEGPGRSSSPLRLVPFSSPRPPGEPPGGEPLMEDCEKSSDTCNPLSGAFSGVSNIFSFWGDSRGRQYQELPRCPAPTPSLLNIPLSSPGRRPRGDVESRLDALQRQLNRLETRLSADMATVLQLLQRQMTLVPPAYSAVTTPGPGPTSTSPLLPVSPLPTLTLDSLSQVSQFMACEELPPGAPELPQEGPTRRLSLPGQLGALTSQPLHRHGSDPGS

## CN1CCN(CC/C=C2/c3ccccc3Sc3ccc(S(=O)(=O)N(C)C)cc32)CC1
[1]
  AC50: 2.51 µM (inconclusive)

## COc1ccc(-n2nc(C(=O)NCC(=O)NCc3ccc(F)cc3)c3ccccc3c2=O)cc1
Trypsin
  AC50: 9.62 µM (active)
CAAX prenyl protease 2 [2]
  AC50: 5.21 µM (active)
CAAX prenyl protease 2 [3]
  AC50: 9.42 µM (active)

## Cc1ccccc1NC(=O)CCC(=O)OCC(=O)c1cccc([N+](=O)[O-])c1
Beta-galactosidase
  EC50: > 40 µM (inactive)
[4]
  IC50: 33.6 µM (not active)
Protein skinhead-1
  IC50: > 100 µM (inactive)

## Cc1ccccc1-c1nnc(CN2CCC(C)CC2)o1
[5]
  AC50: 46.9 µM (active)

## Cc1ccc2[nH]c(CN3CCC(CO)(CC4CCCCO4)CC3)c(C)c2c1 (stereo unspecified)
Vero [6]
  IC50: > 25 µM (active)

## COc1ccc(OC)c(-c2cc(C(=O)Nc3c(C)nn(Cc4ccccc4Cl)c3C)no2)c1
[5]
  AC50: 47.9 µM (active)

## O=C(COC(=O)c1cccnc1Cl)c1ccc(Cl)cc1Cl
Beta-galactosidase
  EC50: > 40 µM (inactive)
[4]
  IC50: 35.4 µM (not active)

## O=[N+]([O-])c1ccc(Sc2cccc3cccnc23)c2cccnc12
[7]
  EC50: 0.666 µM (active)
[8]
  EC50: > 30 µM (not active)
[9]
  IC50: > 80 µM (inactive)

## Cc1ccc(S(=O)(=O)Cc2cn3cccnc3n2)cc1
Trypsin
  AC50: 25.1 µM (active)
CAAX prenyl protease 2 [2]
  AC50: 16.2 µM (active)
CAAX prenyl protease 2 [3]
  AC50: 34.3 µM (active)

## Cc1ccc2oc(-c3ccc(C)c(NC(=O)Cc4cccs4)c3)nc2c1
SUMO-activating enzyme
  IC50: > 100 µM (inactive)

## Cn1c2ccc(F)cc2c2nc3ccccc3nc21
CHO-K1
  IC50: > 66.2 µM (inactive)
[10]
  IC50: > 49.7 µM (inactive)
[11]
  IC50: 1.17 µM (active)
[12]
  IC50: 6.95 µM (active)

## CCc1nc2ccccc2c(C(=O)OC2CCOC2=O)c1C (stereo unspecified)
Escherichia coli [13]
  AC50: 42.9 µM (active)

## Cc1c(C(=O)O)cccc1-n1c(C)cc(/C=N/Nc2ccc([N+](=O)[O-])cn2)c1C
[14]
  EC50: > 300 µM (not active)
[15]
  EC50: 50.2 µM (active)
[16]
  AC50: 6.79 µM (active)

## C/C(=N\NC(=O)c1cc(-c2cccs2)nc2ccccc12)c1ccccn1
[17]
  EC50: 2.71 µM (inconclusive)
BJ [18]
  EC50: 1.3 µM (active)
BJ [19]
  EC50: 2.12 µM (active)
[20]
  EC50: 1.19 µM (active)
BJ [21]
  EC50: 1.14 µM (active)
[22]
  EC50: 1.41 µM (active)
Nonstructural protein 1
  IC50: 4.52 µM (active)
Vero [6]
  IC50: > 25 µM (active)
INS1
  AC50: 0.366 µM (active)
Vero [23]
  CC50: 1.62 µM (active)

## O=C1OCCN1/N=C/c1ccc([N+](=O)[O-])o1 [FURAZOLIDONE]
[24]
  EC50: > 50 µM (active)
Escherichia coli [25]
  AC50: 24.4 µM (active)
Escherichia coli [13]
  AC50: 17.8 µM (active)

## CCCN1CCC[C@@H]2Cc3n[nH]cc3C[C@H]21 [QUINPIROLE HYDROCHLORIDE]
[1]
  AC50: 11.2 µM (inconclusive)
